Laboratory results: PubChem BioAssay (NCI)
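A five-concentration, 48-hour dose response in 96-well plates underlies each endpoint, interpolated linearly between surrounding concentrations. TGI marks complete inhibition of growth.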

Tests used:
Test in all cases: growth of human tumour cells (NCI), 48 h
786-0 renal = system: 786-0 renal
NCI-H226 lung = system: NCI-H226 lung
MDA-N = system: MDA-N
PC-3 prostate = system: PC-3 prostate
T-47D breast = system: T-47D breast
CAKI-1 renal = system: CAKI-1 renal
SF-295 CNS = system: SF-295 CNS
IGROV1 ovarian = system: IGROV1 ovarian
MCF7 breast = system: MCF7 breast
SN12C renal = system: SN12C renal
NCI-H522 lung = system: NCI-H522 lung
SK-OV-3 ovarian = system: SK-OV-3 ovarian
SK-MEL-2 melanoma = system: SK-MEL-2 melanoma
M14 melanoma = system: M14 melanoma
SNB-75 CNS = system: SNB-75 CNS
RPMI-8226 leukemia = system: RPMI-8226 leukemia
MALME-3M melanoma = system: MALME-3M melanoma
SK-MEL-5 melanoma = system: SK-MEL-5 melanoma
KM12 colon = system: KM12 colon
HL-60(TB) leukemia = system: HL-60(TB) leukemia
CCRF-CEM leukemia = system: CCRF-CEM leukemia
HOP-62 NSCLC = system: HOP-62 NSCLC
SW-620 colon = system: SW-620 colon
K-562 leukemia = system: K-562 leukemia
OVCAR-4 ovarian = system: OVCAR-4 ovarian
HCC-2998 colon = system: HCC-2998 colon
SNB-19 CNS = system: SNB-19 CNS
OVCAR-3 ovarian = system: OVCAR-3 ovarian
OVCAR-8 ovarian = system: OVCAR-8 ovarian
RXF 393 renal = system: RXF 393 renal
U251 CNS = system: U251 CNS
EKVX NSCLC = system: EKVX NSCLC
DU-145 prostate = system: DU-145 prostate
NCI/ADR-RES ovarian = system: NCI/ADR-RES ovarian
UO-31 renal = system: UO-31 renal
A498 renal = system: A498 renal
SF-268 CNS = system: SF-268 CNS
MDA-MB-231 breast = system: MDA-MB-231 breast
HCT-15 colon = system: HCT-15 colon
TK-10 renal = system: TK-10 renal
ACHN renal = system: ACHN renal
HT29 colon = system: HT29 colon
UACC-62 melanoma = system: UACC-62 melanoma
SF-539 CNS = system: SF-539 CNS
MOLT-4 leukemia = system: MOLT-4 leukemia
OVCAR-5 ovarian = system: OVCAR-5 ovarian
COLO 205 colon = system: COLO 205 colon
SK-MEL-28 melanoma = system: SK-MEL-28 melanoma
LOX IMVI melanoma = system: LOX IMVI melanoma
NCI-H460 lung = system: NCI-H460 lung
HS 578T breast = system: HS 578T breast
MDA-MB-435 = system: MDA-MB-435
NCI-H23 lung = system: NCI-H23 lung
A549 NSCLC = system: A549 NSCLC
UACC-257 melanoma = system: UACC-257 melanoma
HCT-116 colon = system: HCT-116 colon
HOP-92 NSCLC = system: HOP-92 NSCLC
BT-549 breast = system: BT-549 breast

## COc1ccc(C[C@H]2NC(=O)/C=C/C[C@@H]([C@H](C)[C@H]3O[C@@H]3c3ccccc3)OC(=O)[C@H](CC(C)C)OC(=O)[C@H](C)CNC2=O)cc1
786-0 renal
  TGI: > 0.0001 µM
NCI-H226 lung
  TGI: > 7.26e-05 µM
MDA-N
  TGI: 2.32e-05 µM
PC-3 prostate
  TGI: > 0.0001 µM
T-47D breast
  TGI: > 0.0001 µM
CAKI-1 renal
  TGI: > 0.0001 µM
SF-295 CNS
  TGI: > 6.84e-05 µM
IGROV1 ovarian
  TGI: > 0.0001 µM
MCF7 breast
  TGI: > 0.0001 µM
SN12C renal
  TGI: > 0.0001 µM
NCI-H522 lung
  TGI: > 0.0001 µM
SK-OV-3 ovarian
  TGI: > 0.0001 µM
SK-MEL-2 melanoma
  TGI: > 0.0001 µM
M14 melanoma
  TGI: 6.84e-05 µM
SNB-75 CNS
  TGI: > 9.19e-05 µM
RPMI-8226 leukemia
  TGI: > 0.0001 µM
MALME-3M melanoma
  TGI: > 0.0001 µM
SK-MEL-5 melanoma
  TGI: 7.06e-05 µM
KM12 colon
  TGI: > 0.0001 µM
HL-60(TB) leukemia
  TGI: 5.2e-05 µM
CCRF-CEM leukemia
  TGI: > 6.99e-05 µM
HOP-62 NSCLC
  TGI: > 7.45e-05 µM
SW-620 colon
  TGI: > 0.0001 µM
K-562 leukemia
  TGI: > 8.13e-05 µM
OVCAR-4 ovarian
  TGI: > 0.0001 µM
HCC-2998 colon
  TGI: > 0.0001 µM
SNB-19 CNS
  TGI: > 0.0001 µM
OVCAR-3 ovarian
  TGI: > 0.0001 µM
OVCAR-8 ovarian
  TGI: 5.55e-05 µM
RXF 393 renal
  TGI: > 3.12e-05 µM
U251 CNS
  TGI: > 0.0001 µM
EKVX NSCLC
  TGI: > 9.66e-05 µM
DU-145 prostate
  TGI: > 8.97e-05 µM
NCI/ADR-RES ovarian
  TGI: > 0.0001 µM
UO-31 renal
  TGI: > 0.0001 µM
A498 renal
  TGI: 0.0837 nM
SF-268 CNS
  TGI: > 0.0001 µM
MDA-MB-231 breast
  TGI: > 8.79e-05 µM
HCT-15 colon
  TGI: > 0.0001 µM
TK-10 renal
  TGI: > 0.0001 µM
ACHN renal
  TGI: > 0.0001 µM
HT29 colon
  TGI: > 6.54e-05 µM
UACC-62 melanoma
  TGI: 3.38e-05 µM
SF-539 CNS
  TGI: 4.36e-05 µM
MOLT-4 leukemia
  TGI: > 0.0001 µM
OVCAR-5 ovarian
  TGI: > 0.0001 µM
COLO 205 colon
  TGI: 4.99e-05 µM
SK-MEL-28 melanoma
  TGI: > 0.0001 µM
LOX IMVI melanoma
  TGI: > 0.0001 µM
NCI-H460 lung
  TGI: > 0.0001 µM
HS 578T breast
  TGI: > 6.66e-05 µM
MDA-MB-435
  TGI: 1.45e-05 µM
NCI-H23 lung
  TGI: > 7.34e-05 µM
A549 NSCLC
  TGI: > 0.0001 µM
UACC-257 melanoma
  TGI: > 0.0001 µM
HCT-116 colon
  TGI: > 0.0001 µM

## Nc1ccccc1/C=C\c1ccccc1
786-0 renal
  TGI: > 100 µM
NCI-H226 lung
  TGI: > 100 µM
MDA-N
  TGI: > 100 µM
PC-3 prostate
  TGI: > 100 µM
T-47D breast
  TGI: > 100 µM
SF-295 CNS
  TGI: > 100 µM
IGROV1 ovarian
  TGI: > 100 µM
MCF7 breast
  TGI: > 100 µM
SN12C renal
  TGI: > 100 µM
SK-OV-3 ovarian
  TGI: > 100 µM
M14 melanoma
  TGI: > 100 µM
SNB-75 CNS
  TGI: > 100 µM
RPMI-8226 leukemia
  TGI: > 100 µM
MALME-3M melanoma
  TGI: > 100 µM
SK-MEL-5 melanoma
  TGI: > 100 µM
KM12 colon
  TGI: > 100 µM
HL-60(TB) leukemia
  TGI: > 100 µM
CCRF-CEM leukemia
  TGI: > 100 µM
HOP-62 NSCLC
  TGI: > 100 µM
SW-620 colon
  TGI: > 100 µM
K-562 leukemia
  TGI: > 100 µM
SNB-19 CNS
  TGI: > 100 µM
OVCAR-3 ovarian
  TGI: > 100 µM
OVCAR-8 ovarian
  TGI: > 100 µM
RXF 393 renal
  TGI: > 100 µM
U251 CNS
  TGI: > 100 µM
HOP-92 NSCLC
  TGI: > 100 µM
EKVX NSCLC
  TGI: > 100 µM
DU-145 prostate
  TGI: > 100 µM
NCI/ADR-RES ovarian
  TGI: > 100 µM
UO-31 renal
  TGI: > 100 µM
SF-268 CNS
  TGI: > 100 µM
HCT-15 colon
  TGI: > 100 µM
BT-549 breast
  TGI: > 100 µM
TK-10 renal
  TGI: > 100 µM
ACHN renal
  TGI: > 100 µM
HT29 colon
  TGI: > 100 µM
UACC-62 melanoma
  TGI: > 100 µM
SF-539 CNS
  TGI: > 100 µM
MOLT-4 leukemia
  TGI: > 100 µM
OVCAR-5 ovarian
  TGI: > 100 µM
SK-MEL-28 melanoma
  TGI: > 100 µM
NCI-H460 lung
  TGI: > 100 µM
HS 578T breast
  TGI: > 100 µM
MDA-MB-435
  TGI: > 100 µM
NCI-H23 lung
  TGI: > 100 µM
A549 NSCLC
  TGI: > 100 µM
UACC-257 melanoma
  TGI: > 100 µM
HCT-116 colon
  TGI: > 100 µM

## C=CCn1c(-c2ccccc2)cs/c1=N\C(P(=O)(O)O)P(=O)(O)O
786-0 renal
  TGI: > 100 µM
NCI-H226 lung
  TGI: > 100 µM
MDA-N
  TGI: > 100 µM
PC-3 prostate
  TGI: > 100 µM
CAKI-1 renal
  TGI: > 100 µM
SF-295 CNS
  TGI: > 100 µM
IGROV1 ovarian
  TGI: > 100 µM
MCF7 breast
  TGI: > 100 µM
NCI-H522 lung
  TGI: > 100 µM
SK-OV-3 ovarian
  TGI: > 100 µM
M14 melanoma
  TGI: > 100 µM
MALME-3M melanoma
  TGI: > 100 µM
SK-MEL-5 melanoma
  TGI: > 100 µM
KM12 colon
  TGI: > 100 µM
HOP-62 NSCLC
  TGI: > 100 µM
HCC-2998 colon
  TGI: > 100 µM
SNB-19 CNS
  TGI: > 100 µM
OVCAR-3 ovarian
  TGI: > 100 µM
RXF 393 renal
  TGI: > 100 µM
EKVX NSCLC
  TGI: > 100 µM
DU-145 prostate
  TGI: > 100 µM
NCI/ADR-RES ovarian
  TGI: > 100 µM
UO-31 renal
  TGI: > 100 µM
SF-268 CNS
  TGI: > 100 µM
MDA-MB-231 breast
  TGI: > 100 µM
HCT-15 colon
  TGI: > 100 µM
BT-549 breast
  TGI: > 100 µM
TK-10 renal
  TGI: > 100 µM
ACHN renal
  TGI: > 100 µM
UACC-62 melanoma
  TGI: > 100 µM
SF-539 CNS
  TGI: > 100 µM
OVCAR-5 ovarian
  TGI: > 100 µM
COLO 205 colon
  TGI: > 100 µM
LOX IMVI melanoma
  TGI: > 100 µM
NCI-H460 lung
  TGI: > 100 µM
NCI-H23 lung
  TGI: > 100 µM
A549 NSCLC
  TGI: > 100 µM
UACC-257 melanoma
  TGI: > 100 µM
HCT-116 colon
  TGI: > 100 µM

## CN1[C@@H]2CCCC[C@H]2N(C)P1(=O)C(O)/C=C/c1ccccc1 (stereo partly specified)
786-0 renal
  TGI: > 100 µM
NCI-H226 lung
  TGI: > 100 µM
MDA-N
  TGI: > 100 µM
PC-3 prostate
  TGI: > 100 µM
T-47D breast
  TGI: > 100 µM
CAKI-1 renal
  TGI: > 100 µM
SF-295 CNS
  TGI: > 100 µM
IGROV1 ovarian
  TGI: > 100 µM
MCF7 breast
  TGI: > 100 µM
SN12C renal
  TGI: > 100 µM
NCI-H522 lung
  TGI: > 100 µM
SK-OV-3 ovarian
  TGI: > 100 µM
SK-MEL-2 melanoma
  TGI: > 100 µM
M14 melanoma
  TGI: > 100 µM
SNB-75 CNS
  TGI: > 100 µM
RPMI-8226 leukemia
  TGI: > 100 µM
MALME-3M melanoma
  TGI: > 100 µM
SK-MEL-5 melanoma
  TGI: > 100 µM
KM12 colon
  TGI: > 100 µM
HL-60(TB) leukemia
  TGI: > 100 µM
CCRF-CEM leukemia
  TGI: > 100 µM
HOP-62 NSCLC
  TGI: > 100 µM
SW-620 colon
  TGI: > 100 µM
K-562 leukemia
  TGI: > 100 µM
OVCAR-4 ovarian
  TGI: > 100 µM
HCC-2998 colon
  TGI: > 100 µM
SNB-19 CNS
  TGI: > 100 µM
OVCAR-3 ovarian
  TGI: > 100 µM
OVCAR-8 ovarian
  TGI: > 100 µM
RXF 393 renal
  TGI: > 100 µM
U251 CNS
  TGI: > 100 µM
HOP-92 NSCLC
  TGI: > 100 µM
EKVX NSCLC
  TGI: > 100 µM
DU-145 prostate
  TGI: > 100 µM
NCI/ADR-RES ovarian
  TGI: > 100 µM
UO-31 renal
  TGI: > 100 µM
A498 renal
  TGI: > 100000 nM
SF-268 CNS
  TGI: > 100 µM
MDA-MB-231 breast
  TGI: > 100 µM
HCT-15 colon
  TGI: > 100 µM
BT-549 breast
  TGI: > 100 µM
TK-10 renal
  TGI: > 100 µM
ACHN renal
  TGI: > 100 µM
HT29 colon
  TGI: > 100 µM
UACC-62 melanoma
  TGI: > 100 µM
MOLT-4 leukemia
  TGI: > 100 µM
OVCAR-5 ovarian
  TGI: > 100 µM
COLO 205 colon
  TGI: > 100 µM
SK-MEL-28 melanoma
  TGI: > 100 µM
LOX IMVI melanoma
  TGI: > 100 µM
NCI-H460 lung
  TGI: > 100 µM
HS 578T breast
  TGI: > 100 µM
MDA-MB-435
  TGI: > 100 µM
NCI-H23 lung
  TGI: > 100 µM
A549 NSCLC
  TGI: > 100 µM
UACC-257 melanoma
  TGI: > 100 µM
HCT-116 colon
  TGI: > 100 µM
